Values of other authors, collected in article PMC9781020, “Anti-Mycobacterial N-(2-Arylethyl)quinolin-3-amines Inspired by Marine Sponge-Derived Alkaloid” (Molecules, 2022).

Test system: drug-sensitive M. tuberculosis H37Rv and extensively drug-resistant M. tuberculosis strains
Conditions: cited from earlier work

For COC1=Cc2ccnc3c(NCCc4ccccc4)cnc(c23)C1=O [Compound 1, 3-(phenethylamino)demethyl(oxy)aaptamine, reference compound], the MIC is listed as 1.5 to 6.0 µM.
